Structures are written as SMILES.

This experiment has as its system phospho-ERK in melanoma derived WM-266-4 cells. The experiment is described as follows: Mechanistic cellular assay for Raf kinase activity (phospho-ERK, Bio-Plex). The experiment is classed as cell-based. The settings on record: Homo sapiens, treated 1-2 hr at 37° C., serum free medium, read-out: pERK EC50. An excerpt: (2) Mechanistic Cellular Assay for Raf Kinase Activity
The following method was utilized for quantifying the amount of phospho-ERK in melanoma derived WM-266-4 cells (one allele each of wild type BRaf and mutant BRaf (V600D) as an indicator of Raf kinase activity in cells treated with various kinase inhibitors.
(1) Detached adhered WM-266-4 cells from flask using 0.25% Trypsin. Resuspended cells in growth media (90% RPMI 1640, 10% FBS) and determine cell density.
(2) Seeded cells @ 10,000 cells/well in 96-well (flat bottom) tissue culture plates (36,000 cells/cm^2). Added growth media to a final volume of 200 uL/well and incubated overnight at 37° C.
(1) Prepared compound dilutions (1000× in DMSO) as follows. Starting with a stock of 5 mM compound in DMSO, diluted serially 3-fold in DMSO for a total of eight concentrations (5 mM, 1.67 mM, 0.556 mM, 0.185 mM, 0.062 mM, 0.021 mM, 0.007 mM, 0.002 mM).
(2) Prepared compound-containing media by adding 1 mL treatment media (100% RPMI 1640 without FBS) to 1 μL of compound dilution (from step 3).
(3) Removed plates (from step 2) from incubator. Aspirated media and replace with 150 μL compound-containing media. Incubate for 1-2 hr at 37° C.
(4) Removed plates (from step 5) from incubator and treated each as follows: aspirated compound-containing media and replaced with 300 μL ice-cold 1×PBS, aspirated PBS and replaced with 45 μL lysis buffer (Biorad Bio-Plex lysis buffer containing 0.4% v/v lysis buff. Factor 1, 0.2% v/v lysis buff. Factor 2, and PMSF to 2 mM final concentration), and then placed plate on ice until all plates were treated.
(5) After all plates were processed (step 6), placed plates on an orbital shaker and shook at room temperature for at least 15 min.
(6) Finally, removed plates from shaker, and transfered 40 μL/well of lysate from each to new corresponding 96-well V-bottom plates. At this point, samples may be frozen and stored @−80 C.°.
(1) Thaw (if necessary) plates (from step 8) and added 40 μL of Phospho-Protein Assay Buffer to each 40 μL lysate for a 1:1 dilution.
(2) Prepared phospho-ERK1,2 Bioplex beads by diluting 1:50 with Bioplex Wash Buffer (mixing 49 μL Wash Buffer with 1 μL of phospho-ERK1,2 Bioplex beads for each sample to be analyzed). Protected from light by wrapping tube in aluminum foil and kept at room temperature.
(3) Prepared Filter Plate by adding 100 μL/well Bioplex Wash Buffer and removed by vacuum filtration.
(4) Add 50 μL of bead solution (from step 10) to each well of a prepared Filter Plate (from step 11) and vacuum filter. Wash/filter 2× with 100 μL/well Wash Buffer.
(5) Added 50 μL of each lysate to appropriate well of the Filter Plate (from step 12). For this and all subsequent plate incubation steps, placed plate on an inverted plate cover (reduces background), and wrapped in aluminum foil (to protect from light). Shook overnight at room temperature. Included positive (control lysate) and negative (lysis buffer) controls.
(1) Prepared detection antibody (phospho-ERK1,2 Ab) by diluting 1:25 with Detection Antibody Dilution Buffer Buffer (mixing 24 μL Detection Antibody Dilution Buffer with 1 μL of phospho-ERK1,2 Ab for each sample to be analyzed).
(2) Removed plate (from step 13) from shaker and vacuum filter. Washed/filter plate 3× with 100 μL/well Wash Buffer. Added 25 μL of diluted antibody to each well. Incubated on shaker at RT for 30-45 min.
(3) Prepared streptavidin-PE by diluting 1:100 with Wash Buffer (mixing 49.5 μL Wash Buffer with 0.5 μL of 100× streptavidin-PE for each sample to be analyzed). Protected from light.
(4) Removed plate (from step 15) from shaker and vacuum filter. Washed/filter plate 3× with 100 μL/well Wash Buffer. Add 50 μL of diluted streptavidin-PE solution (from step 16) to each sample well. Incubated on shaker for 10-20 min.
(5) Removed plate from shaker and vacuum filter. Wash/filter plate 3× with 100 μL/well Bead Resuspension Buffer. After last wash resuspended beads in 125 μL Bead Resuspension Buffer. […]

With `CCn1cnc2cnc(C(=O)NC(C)c3cnc(Nc4ccc(C(F)(F)F)cc4)cn3)nc21` (stereo not drawn) [Example 192], the EC50 was 100 to 1000 nM.
Consider `CC(NC(=O)c1cc2c(cn1)ncn2C)c1cnc(Nc2ccc(Cl)c(C(F)(F)F)c2)cn1` (stereo not drawn) [Example 232], for which the concentration giving a half-maximal response (EC50) is not above 100 nM.
As for `C[C@@H](NC(=O)c1cc2c(cn1)ncn2C1CN(CC(=O)O)C1)c1cnc(Nc2ccc(C(F)(F)F)cc2)s1` [Example 349], the figure is 1000 to 10000 nM; as for `CCn1c(C(=O)N[C@H](C)c2ncc(C(=O)Nc3cc(C(F)(F)F)c(Cl)cn3)s2)cnc1N` [Example 149], not above 100 nM; as for `Cc1ccc2cc(C(=O)N[C@H](C)c3ncc(C(=O)Nc4cc(C(F)(F)F)c(Cl)cn4)s3)ccc2n1` [Example 60], 100 to 1000 nM.
Next, `CC(NC(=O)c1cc2c(cn1)ncn2CCS(C)(=O)=O)c1cnc(Nc2ccc(C(F)(F)F)cc2)s1` (stereo not drawn) [Example 184]: 100 to 1000 nM.
For `CC(NC(=O)c1cccc(N2CCOCC2)c1)c1ncc(C(=O)Nc2cc(C(F)(F)F)c(Cl)cn2)s1` (stereo not drawn) [Example 45], the concentration giving a half-maximal response (EC50) fell in the range of 1000 to 10000 nM.
In the case of `CC(NC(=O)c1cnc2n1CCNC2)c1cnc(Nc2ccc(C(F)(F)F)cc2)s1` (stereo not drawn) [Example 314], the EC50 lay in the range of 100 to 1000 nM.
As for `CC(NC(=O)c1cc2c(cn1)ncn2C)c1cnc(Nc2ccc(C3COC3)cc2)cn1` (stereo not drawn) [Example 281], the figure is 1000 to 10000 nM.
On to `CC(NC(=O)c1cc2cn(C)nc2cn1)c1cnc(Nc2ccc(C(F)(F)F)cc2)cn1` (stereo not drawn) [Example 206], for which the EC50 fell in the range of 100 to 1000 nM.
With `CC(=N)Nc1nc2cnc(C(=O)NC(C)c3cnc(Nc4ccc(C(F)(F)F)cc4)s3)cc2n1C` (stereo not drawn) [Example 200], the EC50 lay within 1000 to 10000 nM.
`CC(NC(=O)c1cc2c(cn1)nc(N)n2C)c1cnc(Nc2ccc(C(F)(F)F)nc2)s1` (stereo not drawn) [Example 293]: the concentration giving a half-maximal response (EC50) was in the range of 100 to 1000 nM.
As for `CC(NC(=O)c1cc2c(cn1)ncn2C1CCCCC1)c1cnc(Nc2ccc(C(F)(F)F)cc2)s1` (stereo not drawn) [Example 18], the figure is 100 to 1000 nM; as for `C[C@@H](NC(=O)c1cnn(C)c1Cl)c1ncc(C(=O)Nc2cc(C(F)(F)F)c(Cl)cn2)s1` [Example 124], not above 100 nM; as for `CC(NC(=O)c1cc2c(cn1)ncn2C(C)C)c1cnc(Nc2ccc(C(F)(F)F)cc2)cn1` (stereo not drawn) [Example 80], 100 to 1000 nM.
For the molecule `CC(NC(=O)c1cnn2cc(-c3ccnc(F)c3)ccc12)c1nc(C(=O)Nc2cc(C(F)(F)F)c(Cl)cn2)cs1` (stereo not drawn) [Example 326], the 50% effective concentration (EC50) fell in the range of 100 to 1000 nM.
Turning to `CC(NC(=O)c1cc2c(cn1)ncn2C)c1cnc(Nc2cc(CN(C)C)cc(C(F)(F)F)c2)s1` (stereo not drawn) [Example 357], the EC50 was in the range of 1000 to 10000 nM.
As to `C[C@@H](NC(=O)c1ccc2nccnc2c1)c1ncc(C(=O)Nc2cc(C(F)(F)F)c(Cl)cn2)s1` [Example 63], the concentration for a half-maximal effect (EC50) is not above 100 nM.
Consider `C[C@@H](NC(=O)c1cnc2cnccn12)c1ncc(C(=O)Nc2cc(C(F)(F)F)c(Cl)cn2)s1` [Example 312], for which the 50% effective concentration (EC50) was not above 100 nM.
As for `C[C@@H](NC(=O)c1cnc2ccccn12)c1ncc(C(=O)Nc2cc(C(F)(F)F)c(Cl)cn2)s1` [Example 135], the figure is not above 100 nM.
Next, `C[C@@H](NC(=O)c1ccc2c(ccn2C)c1)c1ncc(C(=O)Nc2cc(C(F)(F)F)c(Cl)cn2)s1` [Example 69]: 1000 to 10000 nM; `C[C@@H](NC(=O)c1cnc2n1CCN2)c1ncc(C(=O)Nc2cc(C(F)(F)F)c(Cl)cn2)s1` [Example 169]: not above 100 nM; `C[C@@H](NC(=O)c1cnc2n1CCCC2)c1ncc(C(=O)Nc2cc(C(F)(F)F)c(Cl)cn2)s1` [Example 335]: not above 100 nM.
Regarding `CC(NC(=O)c1cnc2n1CCN(C(=O)OC(C)(C)C)C2)c1cnc(Nc2ccc(C(F)(F)F)cc2)s1` (stereo not drawn) [Example 313], the 50% effective concentration (EC50) lay in the range of 1000 to 10000 nM.
Take `CCNc1cnc2cnc(C(=O)NC(C)c3ncc(Nc4ccc(C(F)(F)F)cc4)s3)cn12` (stereo not drawn) [Example 303]: the concentration for a half-maximal effect (EC50) is 100 to 1000 nM.
As to `C[C@@H](NC(=O)c1cc2c(cn1)ncn2[C@@H]1CCN(C(=O)OC(C)(C)C)C1)c1cnc(Nc2ccc(C(F)(F)F)cc2)s1` [Example 22], the EC50 fell in the range of 100 to 1000 nM.
Next, `COc1cc(-c2ccc3c(C(=O)NC(C)c4ncc(C(=O)Nc5cc(C(F)(F)F)c(Cl)cn5)s4)cnn3c2)ccn1` (stereo not drawn) [Example 330]: 100 to 1000 nM.
Consider `C[C@@H](NC(=O)c1cnn2cccnc12)c1ncc(C(=O)Nc2cc(C(F)(F)F)c(Cl)cn2)s1` [Example 226], for which the EC50 was in the range of 100 to 1000 nM.
On to `CC(NC(=O)c1cc2c(cn1)ncn2C)c1ncc(C(=O)Nc2cc(C(F)(F)F)c(Cl)cn2)s1` (stereo not drawn) [Example 40], for which the EC50 is not above 100 nM.
As for `CC(NC(=O)c1cc2c(cn1)ncn2C)c1cnc(Nc2cc(C(F)(F)F)c(Cl)cn2)cn1` (stereo not drawn) [Example 254], the figure is 1000 to 10000 nM.
Take `COc1cn2ncnc(C(=O)NC(C)c3cnc(Nc4ccc(C(F)(F)F)cc4)s3)c2c1C` (stereo not drawn) [Example 337]: the EC50 lay in the range of 100 to 1000 nM.
Take `CC(NC(=O)c1cnn2cc(-c3cncnc3)ccc12)c1ncc(C(=O)Nc2cc(C(F)(F)F)c(Cl)cn2)s1` (stereo not drawn) [Example 328]: the EC50 is not above 100 nM.
On to `CC(NC(=O)c1cc2c(cn1)ncn2CCNC(=O)OC(C)(C)C)c1cnc(Nc2ccc(C(F)(F)F)cc2)s1` (stereo not drawn) [Example 21], for which the concentration giving a half-maximal response (EC50) fell in the range of 100 to 1000 nM.
Regarding `C[C@@H](NC(=O)c1cnn(-c2cccnc2)c1)c1ncc(C(=O)Nc2cc(C(F)(F)F)c(Cl)cn2)s1` [Example 116], the half-maximal effective concentration (EC50) was in the range of 100 to 1000 nM.
Regarding `C[C@@H](NC(=O)c1ccc2c(c1)OCCO2)c1ncc(C(=O)Nc2cc(C(F)(F)F)c(Cl)cn2)s1` [Example 70], the concentration giving a half-maximal response (EC50) fell in the range of 100 to 1000 nM.
Consider `COc1ncc(C(=O)N[C@H](C)c2ncc(C(=O)Nc3cc(C(F)(F)F)c(Cl)cn3)s2)n1C` [Example 157], for which the EC50 fell in the range of 1000 to 10000 nM.
`CC(NC(=O)c1cc2c(cn1)ncn2C)c1cnc(Nc2cnc(C(C)(C)C)nc2)cn1` (stereo not drawn) [Example 256]: the EC50 was in the range of 100 to 1000 nM.
`CC(NC(=O)c1cc2c(cn1)ncn2C1CCCC1)c1cnc(Nc2ccc(C(F)(F)F)cc2)s1` (stereo not drawn) [Example 17]: the EC50 was not above 100 nM.
As for `C[C@@H](NC(=O)c1cnn2c1CCCC2)c1ncc(C(=O)Nc2cc(C(F)(F)F)c(Cl)cn2)s1` [Example 85], the EC50 was not above 100 nM.
For `CC(NC(=O)c1cc2c(cn1)ncn2C)c1cnc(Nc2cnc(C(C)(C)C)nc2)s1` (stereo not drawn) [Example 240], the EC50 was not above 100 nM.
For `CC(NC(=O)c1cc2cn[nH]c2cn1)c1cnc(Nc2ccc(C(F)(F)F)cc2)s1` (stereo not drawn) [Example 202], the EC50 was 1000 to 10000 nM.
In the case of `CCn1cncc1C(=O)N[C@H](C)c1ncc(C(=O)Nc2cc(C(F)(F)F)c(Cl)cn2)s1` [Example 145], the EC50 lay in the range of 100 to 1000 nM.
`CC(NC(=O)c1cc2c(cn1)ncn2C)c1cnc(Nc2cccc(C(F)(F)F)n2)s1` (stereo not drawn) [Example 253]: the concentration for a half-maximal effect (EC50) was 100 to 1000 nM.
Next, `C[C@@H](NC(=O)c1cn[nH]c1)c1ncc(C(=O)Nc2cc(C(F)(F)F)c(Cl)cn2)s1` [Example 112]: 100 to 1000 nM; `Cc1[nH]ncc1C(=O)N[C@H](C)c1ncc(C(=O)Nc2cc(C(F)(F)F)c(Cl)cn2)s1` [Example 113]: 100 to 1000 nM; `CC(NC(=O)c1cc2c(cn1)ncn2C1CCC1)c1cnc(Nc2ccc(C(F)(F)F)cc2)s1` (stereo not drawn) [Example 14]: not above 100 nM.
As for `Cc1ncc(C(=O)N[C@H](C)c2ncc(C(=O)Nc3cc(C(F)(F)F)c(Cl)cn3)s2)n1C(C)C` [Example 158], the EC50 was not above 100 nM.
On to `CC(NC(=O)c1cc2c(cn1)ncn2C1CC1)c1cnc(Nc2ccc(C(F)(F)F)cc2)s1` (stereo not drawn) [Example 19], for which the concentration giving a half-maximal response (EC50) was not above 100 nM.

Usually EC50 stands for the concentration at which the effect is half-maximal.

These data come from patent publication US20120040951A1, “HETEROARYL COMPOUNDS USEFUL AS RAF KINASE INHIBITORS” (priority 2008, published 2012).
